Experimental data reported in ChEMBL document CHEMBL1212708, “Sialic acid dependence in rotavirus host cell invasion” (Nat Chem Biol, 2009).
Values belong to the compound of their own block, whether it stands above or below them. Active and inactive are the calls of the source. The rule behind the calls is not given here.

What was measured:
[1] = system: Rotavirus; assay: Binding affinity to […] Rotavirus CRW-8 VP8 at 3.5 mM by STD NMR spectrum
[2] = system: Rotavirus; assay: Binding affinity to sialidase-insensitive Rotavirus Wa VP8 at 3.5 mM by STD NMR spectrum
[3] = system: MA104; assay: Inhibition of Rotavirus Wa VP8-mediated infectivity in monkey MA104 cells at 10 mM after 1 hr by immunofluorescence assay; assay type: cell-based
[4] = system: MA104; assay: Inhibition of Rotavirus CRW-8 VP8-mediated binding to monkey MA104 cells at 10 mM after 1 hr by immunofluorescence assay in presence of sialidase; assay type: cell-based
[5] = system: MA104; assay: Inhibition of Rotavirus CRW-8 VP8-mediated infectivity in monkey MA104 cells at 10 mM after 1 hr by immunofluorescence assay in presence of sialidase; assay type: cell-based
[6] = system: MA104; assay: Inhibition of Rotavirus CRW-8 VP8-mediated infectivity in monkey MA104 cells at 10 mM after 1 hr by immunofluorescence assay; assay type: cell-based
[7] = system: MA104; assay: Inhibition of Rotavirus CRW-8 VP8-mediated binding to monkey MA104 cells at 10 mM after 1 hr by immunofluorescence assay; assay type: cell-based
[8] = system: MA104; assay: Inhibition of Rotavirus Wa VP8-mediated binding to monkey MA104 cells at 10 mM after 1 hr by immunofluorescence assay; assay type: cell-based
[9] = system: MA104; assay: Inhibition of Rotavirus Wa VP8-mediated infectivity in monkey MA104 cells at 10 mM after 1 hr by immunofluorescence assay in presence of sialidase; assay type: cell-based
[10] = system: MA104; assay: Inhibition of Rotavirus Wa VP8-mediated binding to monkey MA104 cells at 10 mM after 1 hr by immunofluorescence assay in presence of sialidase; assay type: cell-based
[11] = system: Rotavirus; assay: Binding affinity to […] Rotavirus CRW-8 VP8 at 1.2 mM by STD NMR spectrum
[12] = system: Rotavirus; assay: Binding affinity to sialidase-insensitive Rotavirus Wa VP8 protein at 0.46 mM by STD NMR spectral analysis

- Activity [1]: inactive
- Activity [2]: Active
SMILES: CC(=O)N[C@H]1[C@@H](O[C@@H]2[C@H](O[C@]3(C(=O)O)C[C@H](O)[C@@H](NC(C)=O)[C@H]([C@H](O)[C@H](O)CO)O3)[C@@H](O)[C@H](O[C@H]3[C@H](O)[C@@H](O)C(O)O[C@@H]3CO)O[C@@H]2CO)O[C@H](CO)[C@H](O)[C@@H]1O[C@@H]1O[C@H](CO)[C@H](O)[C@H](O)[C@H]1O (some centres not stated)

SMILES: CO[C@]1(C(=O)O)C[C@H](O)[C@@H](NC(C)=O)[C@H]([C@H](O)[C@H](O)CO)O1
- inhibition [3]: inactive
- Activity [4]: inactive
- Activity [5]: inactive
- inhibition [6]: 52%
- inhibition [7]: 35%
- inhibition [8]: 45%
- inhibition [9]: 26%
- inhibition [10]: Active

- Activity [11]: Active
- Activity [12]: inactive
SMILES: CC(=O)N[C@H]1[C@@H](O[C@@H]2[C@H](O[C@]3(C(=O)O)C[C@H](O)[C@@H](NC(C)=O)[C@H]([C@H](O)[C@H](O)CO)O3)[C@@H](O)[C@H](O[C@H]3[C@H](O)[C@@H](O)C(O)O[C@@H]3CO)O[C@@H]2CO)O[C@H](CO)[C@H](O)[C@@H]1O[C@@H]1O[C@H](CO)[C@H](O)[C@H](O[C@]2(C(=O)O)C[C@H](O)[C@@H](NC(C)=O)[C@H]([C@H](O)[C@H](O)CO)O2)[C@H]1O (some centres not stated)
